{"source": "patent US6235891A", "about": "“Glucocorticoid receptor agonist and decreased PP5” (South Alabama Medical Science Foundation, priority 1999, dated 2001)", "key": {"[1]": {"tested_on": "p53-defective T-24 human bladder carcinoma cells", "assay": "T-24 cell proliferation (cell counts)", "assay_type": "cell-based", "conditions": "p53-defective T-24 cells; dexamethasone single dose 100 nM, counted six days", "description": "(§1) The antiproliferative effect of dexamethasone correlates with the presence of wild type p53 and the expression of p21^Waf1/Cip1 mRNA. Referring to FIGS. 1A-1C, the effect of dexamethasone on cell proliferation in p53-defective T-24 human bladder carcinoma, p53-null TR9 human fibroblasts (Webster et al. 1993; Maiyar et al. 1996), and p53 wild-type A549 human lung carcinoma cells was determined by treating cells in log-phase growth with a single dose of 100 nM dexamethasone and counting the number of cells in treated (.cndot.) and untreated (.box-solid.) cultures for six consecutive days following treatment. Each point represents the mean of triplicate dishes with error bars representing SE. Under similar conditions, treatment with ISIS 15534, a potent inhibitor of PP5 gene expression, inhibited growth in A459 but not T-24 or TR9 cells (Zuo et al. 1998). Referring to FIG. 1D, a comparison of p21^Waf1/Cip1 (p21) and serum glucocorticoid inducible protein kinase (sgk) mRNA levels in p53 competent (Lanes 3, 4) and p53 deficient (Lanes 1, 2, 5, 6) cell cultures after dexamethasone treatment is shown. Cell cultures in logphase growth were treated with 100 nM dexamethasone (+) or vehicle alone as a control (-). After 24 hours total mRNA was prepared and analyzed for p21 and sgk mRNA levels by Northern analysis."}, "[2]": {"tested_on": "GR luciferase reporter plasmid MMTV-luc", "assay": "MMTV-Luc glucocorticoid-responsive luciferase reporter assay in A549 cells", "assay_type": "cell-based, human", "conditions": "300 nM ISIS 15534 without dexamethasone, dexamethasone ≥100 nM for 2 hours", "procedure": "Transfections and luciferase assays were conducted as described by Jones et al. (1996) using a mouse mammary tumor virus-luciferase reporter plasmid (MMTV-Luc). […] Briefly, A549 cells were transfected in serum-free medium with 1 μg MMTV-Luc plasmid DNA per 60 mm dish using 15 μg/ml Lipofectin. ODNs were added into the transfection media wherever applicable. After a 4-hour incubation, the medium was replaced with fresh complete culture medium, and the cells were cultured overnight. The cells were then treated with different amounts of dexamethasone for two hours. Cell extracts were prepared with reporter lysis buffer (Promega). […] Light production was measured for 20 seconds at 562 nm using a Monolight 2010 luminometer (Analytical Luminescence Lab., San Diego, Calif.). To control for difference in transfection efficiency, contransfections were performed with 1 μg of a plasmid encoding β-galactosidase controlled by the SV40 virus promoter (pSV-β-GAL). β-GAL activity was measured in 150 μl cell extracts using the β-Galactosidase Enzyme Assay System (Promega).\nA549 cells were transiently transfected with GR luciferase reporter plasmid, MMTV-luc (Jones et al. 1996). […] The relative light units of the cell extract were calculated as an average of three independent experiments, performed in triplicate, and presented as relative luciferase activity with error bars indicating SD."}, "p21^Waf1/Cip1 mRNA [3]": {"tested_on": "p21^Waf1/Cip1 mRNA", "assay": "Northern analysis of p21Waf1/Cip1 mRNA in TR9 cells", "assay_type": "cell-based, human", "conditions": "dexamethasone 100 nM, 24 hours", "description": "(§2) The cells were harvested, and total RNA was extracted with TRIzol® Reagent according to the methods of the manufacturer. Total RNA (20 μg) was fractionated on 1% agarose gels containing formaldehyde and transferred to DURLON-UV nylon membranes (Stratagene). Following UV cross-linking, the filters were hybridized with a [α^32 P]probe for human PP5. The human PP5 cDNA probe was generated from the full length coding region of PP5 and [α^32 P]-dATP was labeled with DECAprime® DNA Labeling Kit according to the manufacturer's protocol. […] Quantification of hybridization signals was achieved by analysis of the scanned autoradiograms using the NIH Image program (ImagePC). […]\n(§3) The antiproliferative effect of dexamethasone correlates with the presence of wild type p53 and the expression of p21^Waf1/Cip1 mRNA. Referring to FIGS. 1A-1C, the effect of dexamethasone on cell proliferation in p53-defective T-24 human bladder carcinoma, p53-null TR9 human fibroblasts (Webster et al. 1993; Maiyar et al. 1996), and p53 wild-type A549 human lung carcinoma cells was determined by treating cells in log-phase growth with a single dose of 100 nM dexamethasone and counting the number of cells in treated (.cndot.) and untreated (.box-solid.) cultures for six consecutive days following treatment. […] After 24 hours total mRNA was prepared and analyzed for p21 and sgk mRNA levels by Northern analysis."}, "p21^Waf1/Cip1 mRNA [4]": {"tested_on": "p21^Waf1/Cip1 mRNA", "assay": "Northern analysis of p21Waf1/Cip1 mRNA in A549 cells", "assay_type": "cell-based, human", "conditions": "dexamethasone 100 nM, 24 hours", "procedure": "The cells were harvested, and total RNA was extracted with TRIzol® Reagent according to the methods of the manufacturer. Total RNA (20 μg) was fractionated on 1% agarose gels containing formaldehyde and transferred to DURLON-UV nylon membranes (Stratagene). Following UV cross-linking, the filters were hybridized with a [α^32 P]probe for human PP5. […] Hybridization was performed in the presence of 50% formamide, 0.1 M Pipes, 0.8 M NaCl, 5×Denhardt's solution, 100 μg/ml denatured herring sperm DNA, 1×10^6 cpm/ml [α-^32 P]-labeled probe and 10% dextran sulfate at 42° C. for 16 hours. […] Quantification of hybridization signals was achieved by analysis of the scanned autoradiograms using the NIH Image program (ImagePC).\nReferring to FIG. 1D, a comparison of p21^Waf1/Cip1 (p21) and serum glucocorticoid inducible protein kinase (sgk) mRNA levels in p53 competent (Lanes 3, 4) and p53 deficient (Lanes 1, 2, 5, 6) cell cultures after dexamethasone treatment is shown. […] After 24 hours total mRNA was prepared and analyzed for p21 and sgk mRNA levels by Northern analysis.\nAfter 24 hours, 20 μg of total RNA was prepared and analyzed for serine/threonine protein phosphatase 5 (PP5), p21^Waf1/Cip1 (p21), and serum/glucocorticoid inducible kinase (sgk) mRNA levels. […]"}, "[5]": {"tested_on": "p53-null TR9 human fibroblasts", "assay": "TR9 cell proliferation (cell counts)", "assay_type": "cell-based", "conditions": "dexamethasone single dose 100 nM, counted six days", "description": "as §1"}, "p21^Waf1/Cip1 mRNA [6]": {"tested_on": "p21^Waf1/Cip1 mRNA", "assay": "Northern analysis of p21Waf1/Cip1 mRNA in T-24 cells", "assay_type": "cell-based, human", "conditions": "dexamethasone 100 nM, 24 hours", "description": "as §2, §3"}, "A549 cells": {"tested_on": "A549 cells", "assay": "A549 cell proliferation (viable cell counts)", "assay_type": "cell-based, human", "conditions": "for Decrease in proliferation compared to control: 300 nM; for Growth arrest: p53 wild-type A549 cells, dexamethasone single dose 100 nM, counted six days", "description": "A549 cells were treated with ISIS 15534 or its scrambled control, ISIS 15521 at a concentration of 300 nM. Each day for the next 5 days, viable cells were counted.\nA549 cells were seeded in 12-well tissue culture plates at about 50% confluence in DMEM containing 10% fetal bovine serum. The next day, cells were treated with the PP5-specific antisense oligonucleotide, ISIS 15534, or its scrambled control, ISIS 15521, at a final concentration of 300 nM as described in Example 7. On each of the following 5 days, cultures from three wells of each treatment gruop were trypsinized, collected and counted. Cell viability was determined by trypan blue staining, and the results given are the mean of three independent experiments.\nA549 cells were seeded in 12-well tissue culture plates at a density of 5.0×10^4 cell/dish. On the next day, the cells were treated with PP5 specific antisense oligonucleotides (ISIS 15534) or the scrambled mismatch control (ISIS 15521) at a final concentration of 300 nM as described above. On each of the next five days, the cell cultures were treated briefly with trypsin to detach the cells from the dish (three wells from each test group). The number of cells was then determined by counting using a hemacytometer. Cell viability was determined with trypan blue staining. The percentage of viable cells was calculated by dividing the number of cells excluding trypan blue by the total number of cells, and the results are reported as the mean +/- SD of data collected from three independent experiments.\nas §1"}, "PP5 mRNA": {"tested_on": "PP5 mRNA", "assay": "Northern blot analysis of PP5 mRNA expression in A549 cells", "assay_type": "cell-based, human", "conditions": "dexamethasone 0-100 nM, 24 hours"}}, "data": [{"molecule": "ISIS 15534: chimeric PP5 antisense oligonucleotide, P=O wings, P=S deoxy gap; GGGCCCTATTGCTTGAGTGG, SEQ ID NO: 12 (sugars by position and backbone not given here; chimeric, phosphodiester wings, phosphorothioate deoxy gap)", "values": [{"measurement": "Growth arrest", "setting": "[1]", "value": "neither ISIS 15534 nor dexamethasone induced"}, {"measurement": "GR-reporter plasmid activation", "setting": "[2]", "value": "induces glucocorticoid-mediated transcriptional activation"}, {"measurement": "Expression of p21^Waf1/Cip1", "setting": "p21^Waf1/Cip1 mRNA [3]", "value": "neither ISIS 15534 nor dexamethasone induced"}, {"measurement": "Expression of p21^Waf1/Cip1", "setting": "p21^Waf1/Cip1 mRNA [4]", "value": "concomitant increase in the expression of p21^Waf1/Cip1"}, {"measurement": "Growth arrest", "setting": "[5]", "value": "neither ISIS 15534 nor dexamethasone induced"}, {"measurement": "Expression of p21^Waf1/Cip1", "setting": "p21^Waf1/Cip1 mRNA [6]", "value": "neither ISIS 15534 nor dexamethasone induced"}, {"measurement": "Decrease in proliferation compared to control", "setting": "A549 cells; day 2", "value": 55, "unit": "%"}, {"measurement": "Decrease in proliferation compared to control", "setting": "A549 cells; day 3", "value": 75, "unit": "%"}, {"measurement": "Decrease in proliferation compared to control", "setting": "A549 cells; day 4", "value": 89, "unit": "%"}, {"measurement": "Decrease in proliferation compared to control", "setting": "A549 cells; day 5", "value": 55, "unit": "%"}, {"measurement": "Growth arrest", "setting": "A549 cells", "value": "produced growth arrest"}]}, {"molecule": "C[C@@H]1C[C@H]2[C@@H]3CCC4=CC(=O)C=C[C@]4(C)[C@@]3(F)[C@@H](O)C[C@]2(C)[C@@]1(O)C(=O)CO", "note": "[dexamethasone, reference compound]", "values": [{"measurement": "Growth arrest", "setting": "[1]", "value": "neither ISIS 15534 nor dexamethasone induced"}, {"measurement": "GR-reporter plasmid activation", "setting": "[2]", "value": "more pronounced"}, {"measurement": "Expression of PP5 mRNA", "setting": "PP5 mRNA", "value": "does not appear to change"}, {"measurement": "Expression of p21^Waf1/Cip1", "setting": "p21^Waf1/Cip1 mRNA [3]", "value": "neither ISIS 15534 nor dexamethasone induced"}, {"measurement": "Expression of p21^Waf1/Cip1", "setting": "p21^Waf1/Cip1 mRNA [4]", "value": "concomitant increase in the expression of p21^Waf1/Cip1"}, {"measurement": "Growth arrest", "setting": "[5]", "value": "neither ISIS 15534 nor dexamethasone induced"}, {"measurement": "Expression of p21^Waf1/Cip1", "setting": "p21^Waf1/Cip1 mRNA [6]", "value": "neither ISIS 15534 nor dexamethasone induced"}, {"measurement": "A549 cell growth when expression of p53 is suppressed with ISIS 8345", "setting": "A549 cells; dexamethasone ≥100 nM", "value": "partially inhibit"}, {"measurement": "Growth arrest", "setting": "A549 cells", "value": "produced growth arrest"}]}]}
